System: STAT3
Assay: STAT3-dependent luciferase reporter assay in MDA-MB-231-STAT3 stable cells
Format: cell-based, human
Details: 20 μM; for Rel. luciferase activity (%) 1: experiment 1, relative to DMSO; for Rel. luciferase activity (%) 2: experiment 2, relative to DMSO; for Rel. luciferase activity (%) 3: experiment 3, relative to DMSO; for Rel. luciferase activity (%) Mean: mean of experiments, relative to DMSO; for inhibition of luciferase expression compared to DMSO vehicle control: significant = p value less than 0.05
Procedure: FIG. 12. Identification of active inS3-54 analogues. (A) Effects of inS3-54 analogues on STAT3-dependent luciferase expression. MDA-MB-231 cells with stable STAT3-dependent luciferase expression were treated with DMSO control, 20 μM inSTAT3-54 or its analogues (A1-A79), followed by measurement of luciferase activity. (*p<0.05; **p<0.01; ***p<0.001).
MDA-MB-231-STAT3 stable cell line with high level of STAT3-dependent luciferase expression was exposed to candidate compounds at 20 μM in DMSO for 48 hours based on previous studies, and luciferase activity was measured using a luciferase assay kit (Promega, USA), following manufacturer's instructions. The final DMSO concentration in this and following assays was 0.1% (vol/vol).

Row | Compound | Rel. luciferase activity (%) 1 [%] | Rel. luciferase activity (%) 2 [%] | Rel. luciferase activity (%) 3 [%] | Rel. luciferase activity (%) Mean [%] | inhibition of luciferase expression compared to DMSO vehicle control
1 | COc1ccc(C=C2C=C(c3ccccc3)N(c3cccc4ccccc34)C2=O)cc1 [Compound A51] | 42.2 | 71.0 | 56.6 | 56.6 | significantly inhibited
2 | O=C1C(=Cc2ccc([N+](=O)[O-])cc2)C=C(c2ccccc2)N1c1ccc(-c2ccccc2)cc1 [Compound A35] | 51.3 | 109.5 | 112.6 | 91.1 | –
3 | O=C1C(=Cc2ccc([N+](=O)[O-])cc2)C=C(c2ccccc2)N1c1ccc(F)cc1 [Compound A40] | 126.5 | 101.5 | 43.0 | 90.3 | –
4 | O=C1C(=Cc2ccc([N+](=O)[O-])cc2)C=C(c2ccccc2)N1c1ccc2ccccc2c1 [Compound A46] | 156.2 | 147.8 | 64.9 | 122.9 | –
5 | COc1ccccc1N1C(=O)C(=Cc2ccc(Cl)cc2)C=C1c1ccccc1 [Compound A75] | 28.7 | 71.4 | 45.4 | 48.5 | significantly inhibited
6 | O=C1C(=Cc2ccc(-c3ccc([N+](=O)[O-])cc3)o2)C=C(c2ccccc2)N1c1ccccc1 [Compound A62] | 71.1 | 111.3 | 52.2 | 78.2 | –
7 | COc1ccc(C=C2C=C(c3ccccc3)N(c3ccc4ccccc4c3)C2=O)cc1 [Compound A56] | 150.7 | 143.4 | 76.2 | 123.4 | –
8 | O=C1C(=Cc2ccc([N+](=O)[O-])cc2)C=C(c2ccccc2)N1c1ccc(Cl)cc1 [Compound A31] | 122.8 | 124.5 | 49.9 | 99.1 | –
9 | COc1ccc(C=C2C=C(c3ccccc3)N(c3ccc(F)cc3)C2=O)cc1 [Compound A53] | 45.4 | 113.0 | 47.4 | 68.6 | –
10 | COc1ccccc1N1C(=O)C(=Cc2ccc([N+](=O)[O-])cc2)C=C1c1ccccc1 [Compound A32] | 58.2 | 99.2 | 58.6 | 72.0 | –
11 | CCOC(=O)c1ccc(N2C(=O)C(=Cc3ccc(Cl)cc3)C=C2c2ccccc2)cc1 [Compound A74] | 65.9 | 105.7 | 74.5 | 82.0 | –
12 | CN(C)c1ccc(N2C(=O)C(=Cc3ccc([N+](=O)[O-])cc3)C=C2c2ccccc2)cc1 [Compound A77] | 109.7 | 103.0 | 77.0 | 96.6 | –

— patent US9382204B2, “Inhibitors targeting the DNA-binding domain of human STAT3 for treatment of metastatic cancers” (Indiana University Research and Technology Corporation, priority 2013, dated 2016)
